Assay [1] concerns histamine bronchoconstriction. The experiment in a line: Bronchodilatation in vivo, histamine-induced bronchoconstriction (airway resistance, Konzett-Rossler). Also on record: species or system guinea-pigs of the Dunkin Hartley strain. To be noted: Cavia porcellus, iv; dose reducing histamine bronchoconstriction by 50%; anaesthetised male guinea-pigs; i.v. bolus one minute before histamine challenge; read-out: BD₅₀. As for the experimental part:
A. Male guinea-pigs of the Dunkin Hartley strain (500 - 600 g) were anaesthetised with Sagatal (pentobarbital sodium) (60 mg/kg i.p.). Airway resistance was measured using a modification of the classical Konzett-Rossler technique (J. Pharm. Methods, 13, 309-315, 1985). A dose of histamine which gave approximately 150% increase in airway resistance was selected for i.v. administration. Bolus doses of the compound under test were administered (i.v.) one minute before the histamine challenge and the subsequent peak inhibition of bronchoconstriction recorded.
The dose of compound required to reduce the histamine bronchoconstriction by 50% is given as the BD₅₀.

Assay [2] concerns hindquarter blood flow. The experiment in a line: Vasodilatation in vivo, perfused hindquarter blood flow. To be noted: Rattus norvegicus, iv; dose producing a 50% increase in hindquarter blood flow; anaesthetised male Wistar rats; bolus i.v.; read-out: EDHQ₅₀. As for the experimental part: Male Wistar rats (300 g) were anaesthetised with a sodium 5-ethyl-5-(1-methylpropyl)-2-thiobarbiturate/sodium pentobarbitone mixture i.p. (62.5 and 22.5 mg/kg respectively). The trachea was cannulated and the rats breathed spontaneously air enriched with O₂ (5 ml/min). Blood pressure was recorded from a carotid artery and a jugular vein was cannulated for the administration of compounds. The temperature of the animal was maintained at 37°C by the use of an electric blanket. […] The perfusion circuit was primed with 5% bovine serum albumin dissolved in 0.9% sodium chloride solution, pH adjusted to 7.4. Initially the pump rate was set between 10 and 15 ml/min to match the hind quarter perfusion pressure to that of the systemic circulation. Once set, the pressure remained unaltered for the rest of the experiment. A change in the speed of the pump (equivalent to hindquarter blood flow) was used to assess the changes in hindquarter vascular resistance.
All compounds were administered as a bolus i.v. and from the dose response curves the dose required to produce a 50% increase in hindquarter blood flow (EDHQ₅₀) was determined in µmoles/kg.

In assay [3] the test system is U46619-induced bronchoconstriction. The experiment in a line: Bronchodilatation in vivo, U46619-induced bronchoconstriction (airway resistance, Konzett-Rossler). Also on record: species or system guinea-pigs of the Dunkin Hartley strain. The settings on record: Cavia porcellus, iv; dose reducing U46619-induced bronchoconstriction by 50%; anaesthetised male guinea-pigs; i.v. bolus; U46619 infused i.v. 2.5 nmol/min; read-out: BD₅₀. As for the experimental part:
B. Male guinea-pigs of the Dunkin Hartley strain (500 - 600g) were anaesthetised with Sagatal (pentobarbital sodium) (60 mg/kg). Airway resistance was measured using a modification of the classical Konzett-Rossler technique (J. Pharm. Methods, 13, 309-315, 1985). U46619 (9,11-methanoepoxy-PGH₂) was infused i.v. at a rate of 2.5 nmol/min, this produced a steady state of bronchoconstriction (approximately 120% increase from basal airway resistance). The compound under test was administered by i.v. bolus injection, and the subsequent peak inhibition of bronchoconstriction recorded.
The dose of compound required to reduce the U46619-induced bronchoconstriction by 50% is given as the BD₅₀.

Consider four compounds from patent EP0400799A1, “Phenylpyrimidone derivatives” (SMITH KLINE & FRENCH LABORATORIES LIMITED, priority 1989, dated 1990).

For `CCCOc1ccccc1-c1ncc(N)c(=O)[nH]1` [Ex 3, 5-Amino-2-(2-propoxyphenyl)pyrimidin-4(3H)-one], the results for the ED50 in assay [1] and in assay [2] were 8.34 µmol/kg and 19 µmol/kg, respectively.

Regarding `CCCOc1ccccc1-c1ncc(NC(C)=O)c(=O)[nH]1` [Ex 4, 5-Acetamido-2-(2-propoxyphenyl)pyrimidin-4(3H)-one], the ED50 in assay [1] was 8.4 µmol/kg; in assay [3], 3.8 µmol/kg; in assay [2], 15.8 µmol/kg.

For the compound `CCCOc1ccccc1-c1nccc(=O)[nH]1` [Ex 5, 2-(2-Propoxyphenyl)pyrimidin-4(3H)-one], the results for the ED50 in assay [3] and in assay [2] were 3.2 µmol/kg and 22 µmol/kg, respectively.

With `CCCOc1ccccc1-c1ncc(C(N)=O)c(=O)[nH]1` [y, 1,6-dihydro-6-oxo-2-(2-propoxyphenyl)pyrimidine-5-carboxamide, reference compound], the ED50 in assay [1] was 5.6 µmol/kg; in assay [2], 23 µmol/kg.
